Molecular target: DM2 (RNA7)-MBNL-1 complex
Format: biochemical
Conditions: ligand added to well containing immobilized RNA7, then MBNL-1

C#CCCCC(=O)NC[C@@H]1O[C@@H](O[C@H]2[C@H](O)[C@@H](O[C@@H]3O[C@@H](CO)[C@H](O)[C@@H](N)[C@@H]3O)[C@H](N)C[C@@H]2N)[C@@H](O)[C@H](O)[C@H]1O [Compound 1, 6′-N-5-hexynoate kanamycin A]
IC50: 220 µM

— PMC2748256 (ACS chemical biology, 2009)
